Results on one compound are retold here after patent US20080242669A1, “METHODS RELATING TO THE TREATMENT OF FIBROTIC DISORDERS” (UNIVERSITY OF WASHINGTON, priority 2005, published 2008).

Some results are limits rather than exact numbers.

The test system of assay [1] is E-Cadherin. Kind of assay: Western blot for E-Cadherin on whole cell lysates of IPF patient fibroblasts. It counts as cell-based, human. Conditions: RPMI1640+10% FBS, 2 days. On the procedure:
(§1) Western blots for S100A4 (also know as FSP-1 or fibroblast specific protein-1) and E-Cadherin were performed on whole cell lysates (FIG. 20).

For assay [2], the system named is TCF/β-Catenin driven β-Galactosidase expression. In words: TCF/β-catenin driven β-galactosidase reporter in lungs of bleomycin-treated Bat-Gal transgenic mice (X-Gal staining). It counts as in vivo, mouse. To be noted: intratracheal bleomycin, 5 mg/Kg/day via minipump (subcutaneously). On the procedure: Using this murine model of pulmonary fibrosis in transgenic Bat-Gal mice, ICG-001 (5 mg/Kg/day, administered via minipump) blocked >95% of bleomycin-induced TCF/O-catenin transcription.
These mice have a Beta-Galactosidase transgene driven by a TCF/Catenin driven promoter (i.e. a read out for activated Wnt/catenin signaling). The mice were given intratracheal saline or bleomycin and either treated with ICG-001 (5 mgs/Kg/day subcutaneously) or saline as vehicle control. The mice were sacrificed and the lungs sectioned and stained with X-Gal (blue color) A) intratracheal bleo+saline. B) intracheal bleo+ICG-001 C) saline+saline.
The dose was selected because ICG-001 reduces TCF/β-Catenin driven β-Galactosidase expression >95% at 5 mgs/Kg/day.

Assay [3] relates to S100A4 (FSP-1). In words: Western blot for S100A4 on whole cell lysates of IPF patient fibroblasts. It counts as cell-based, human. Conditions: IPF patient fibroblasts / ATCC IPF cells, RPMI1640+10% FBS, 2 days. On the procedure:
as §1
(A western blot detects proteins with antibodies after separation by electrophoresis.)

For assay [4], the system named is bleomycin induced fibrosis. Kind of assay: Bleomycin induced murine pulmonary fibrosis model (lung sections stained for collagen, body weight, survival). It counts as in vivo, mouse. As for the experimental part: Murine models of bleomycin induced fibrosis have been developed in order to study fibrotic disease progression.
There is an absence of airway epithelium in lower left compared to upper left (see arrow heads) and extensive collagen deposition (lower left). On the sixth day, either saline (upper right) or ICG-001 (5 mgs/Kg/day) was administered for 10 days after which the mice were sacrificed and sectioned. Of interest is the upper right (saline treatment) showing lack of normal airway epithelialization, extensive collagen deposition and intra-airway hypercellularity (fibroblasts and inflammatory influx).
FIGS. 16 and 17 show RT-PCR data for S100A4 (FIG. 16) and collagen1A2 (FIG. 17), which are increased in the bleomycin treated mice (treated with saline control).
The procedures were performed using the animal model as described in Example 2 (FIG. 15), and the sectioned lungs were stained for collagen.

For assay [5], the system named is Aquaporin 5. In words: Aquaporin 5 immunostaining of lung tissue in bleomycin mouse model. Conditions: bleomycin and ICG-001 vs bleomycin alone. It counts as in vivo. On the procedure: The aquaporins are water channels expressed in a variety of cell types. Aquaporin 5 is involved in the transportation of water across the apical surface of the alveolar epithelium and the epithelia of the submucosal glands in the upper airway and nasopharynx. (Krane, C. M., P.N.A.S. 98:14192-4, 2001; Yang, F. J. Biol. Chem. 278:32173-80, 2003). Because aquaporin 5 is a marker of Type 1 (differentiated) lung epithelium, its expression was assayed in lung tissue treated with bleomycin (FIG. 22A), bleomycin and ICG-001 (FIG. 22B), and saline (FIG. 22C), using the animal model as described in Example 2 (FIG. 15), and immunostaining with an antibody specific for Aquaporin 5.

Where [6] appears, read: C57/B16 mice, bleomycin 5 days, then 5 mgs/Kg/day for 10 days.
Setting [7] is: bleomycin and ICG-001 vs bleomycin.
Where [8] appears, read: bleomycin model, 5 mg/Kg/day via minipump.

Turning to `O=C1[C@H](Cc2ccc(O)cc2)N2C(=O)CCN(C(=O)NCc3ccccc3)[C@H]2CN1Cc1cccc2ccccc12` [ICG-001], the “E-cadherin expression (Western blot; also mRNA level)” value in assay [1] is “increased”. Besides, the “block of bleomycin-induced TCF/β-catenin transcription (β-Galactosidase expression)” value in assay [2] is reported as greater than 95%. In assay [3], the “S100A4 expression (Western blot)” value is “decreased”. In assay [4] (setting [6]), the “airway appearance in trichrome stained lung sections” value is “essential normal”, the body weight result is “regained normal body weight” and the “collagen levels in trichrome stained lung sections” value is on record as “normal collagen levels”. The survival result in assay [4] (C57/B16 mice, bleomycin 5 days, then 5 mgs/Kg/day for 10 days, untreated controls did not survive) is “survived”. Further, in assay [4] (setting [7]), the “alveolar fibrosis (lungs stained for collagen)” value is recorded as “prevented” and the “interstitial fibrosis (lungs stained for collagen)” value was “prevented”. Besides, in assay [4] (setting [8]), the “disease progression, as judged by mortality, histopathology and endogenous gene expression” value is listed as “not only halted but reversed”; the mortality entry is listed as “reduced”. The “fibrosis over the 25 days of treatment” value in assay [4] (bleomycin model, 25 days of treatment) is recorded as “reversed fibrosis”. The “aquaporin 5 expression in lung tissue (immunostaining)” value in assay [5] is on record as “greatly increased”.
